Molecules are shown by their SMILES.

Holding throughout (type): physicochemical
Series [1] is described as follows: Hygroscopicity of the isolated solids (observation). Conditions: HCl.
Series [2] is described as follows: Solid form stability / interconversion on drying, storage or slurrying (XRPD). To be noted: for XRPD pattern after prolonged slurrying: slurry in MIBK and in heptanes separately, RT (2 weeks).
A short description of series [3]: DVS analysis (moisture sorption/desorption).
Series [4] is described as follows: Humidity stress in open containers with XRPD analysis. Conditions: for XRPD form after humidity exposure / appearance of solids after humidity exposure: 24 hours, open container. As for the experimental part: Samples of R-oxybutynin HCl Form B were exposed to 75% RH and 85% RH for 24 hours, in open containers.

Turning to `CCN(CC)CC#CCOC(=O)[C@](O)(c1ccccc1)C1CCCCC1.Cl` [Form C, (R)-oxybutynin HCl], the “hygroscopicity of isolated solids” value in series [1] is “non-hygroscopic”.

In the case of `CCN(CC)CC#CCOC(=O)[C@](O)(c1ccccc1)C1CCCCC1.Cl` [Form A, (R)-oxybutynin HCl], the “hygroscopicity of isolated solids” value in series [1] is “hygroscopic”. Also, the “crystalline form obtained after drying” value in series [2] (dried under vacuum at RT for 24 hours) was “Form B”. Also, the “XRPD pattern after prolonged slurrying” value in series [2] is “Form C diffraction patterns were observed”. In addition, in series [2] (storage at ambient conditions), the “crystalline form obtained upon storage” value is reported as “Form B”. In addition, the “crystalline form obtained after high temperature drying (XRPD)” value in series [2] (vacuum drying at 50° C. (24 h, 2 days in Table 2), HCl) is “Form C was isolated”.

Consider `CCN(CC)CC#CCOC(=O)[C@](O)(c1ccccc1)C1CCCCC1.Cl` [Form B, (R)-oxybutynin HCl], for which, in series [3] (DVS analysis), the “hygroscopicity by DVS” value is recorded as “hygroscopic”. Moreover, the “physical form of post-DVS sample (XRPD)” value in series [3] (XRPD after DVS) was “Form B remained”. Besides, the “weight gain (DVS)” value worked out at 23% in series [3] (between 75% and 95% RH); 26.6% in series [3] (from 5% RH to 95% RH). Besides, in series [3] (desorption from 95% to 5% RH), the “weight change upon desorption (DVS)” value is “All the weight gained was lost”. The entries for the “XRPD form after humidity exposure” value in series [4] (75% RH) and in series [4] (85% RH) were “consistent with Form B” and “composed of Form B”, respectively. Moreover, the “appearance of solids after humidity exposure” value in series [4] (75% RH) is given as “remained free flowing”; in series [4] (85% RH) it was “not free flowing”. In addition, the “outcome of humidity stress” value in series [4] (93% RH) is on record as “deliquesced”. The “XRPD pattern after prolonged slurrying” value in series [2] is given as “Form C diffraction patterns were observed”.

The record behind these values is patent publication US12448347B2, “Polymorphic forms of (R)-oxybutynin hydrochloride” (APNIMED, INC. (DELAWARE), priority 2020, dated 2025).
